# Measurements reported in ChEMBL document CHEMBL1765000, “Synthesis and biological evaluation of 1-substituted-3(5)-(6-methylpyridin-2-yl)-4-(quinolin-6-yl)pyrazoles as transforming growth factor-β type 1 receptor kinase inhibitors” (Bioorg Med Chem, 2011).
# Columns and labels:
# TGF-beta receptor type-1 = target: T1, TGF-beta receptor type-1 (Homo sapiens, UniProt P36897); assay: Inhibition of human recombinant GST-fused ALK5 expressed in Sf9 cells
# T1 sequence (P36897 whole entry): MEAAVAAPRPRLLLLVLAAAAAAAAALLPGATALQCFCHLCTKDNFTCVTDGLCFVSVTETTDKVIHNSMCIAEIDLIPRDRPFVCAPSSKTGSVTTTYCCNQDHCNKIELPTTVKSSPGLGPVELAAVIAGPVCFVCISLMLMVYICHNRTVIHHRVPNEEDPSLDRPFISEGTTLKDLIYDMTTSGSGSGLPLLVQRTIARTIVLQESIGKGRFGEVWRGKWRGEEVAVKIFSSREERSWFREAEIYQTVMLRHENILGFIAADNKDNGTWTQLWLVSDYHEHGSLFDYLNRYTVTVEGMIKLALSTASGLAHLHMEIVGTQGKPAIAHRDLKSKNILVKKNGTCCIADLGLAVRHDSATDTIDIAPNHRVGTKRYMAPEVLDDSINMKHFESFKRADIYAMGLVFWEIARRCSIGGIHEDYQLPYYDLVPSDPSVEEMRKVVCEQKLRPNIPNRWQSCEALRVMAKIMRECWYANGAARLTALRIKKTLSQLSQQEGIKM
# [1] = target: Mitogen-activated protein kinase 14 (Homo sapiens, UniProt Q16539); assay: Inhibition of human recombinant p38alpha expressed in Escherichia coli using ATF2 as a substrate by radioisotopic protein kinase assay
# [2] = target: T2, TGF-beta receptor type-1 (Homo sapiens) (UniProt P36897); assay: Inhibition of human recombinant ALK5 activity in human HaCaT cells assessed as inhibition of TGFbeta-induced p3TP-luciferase reporter activity; type: cell-based
# T2 sequence (whole entry): T1 sequence (P36897 whole entry)
# Sequence of Mitogen-activated protein kinase 14 (Q16539 whole entry): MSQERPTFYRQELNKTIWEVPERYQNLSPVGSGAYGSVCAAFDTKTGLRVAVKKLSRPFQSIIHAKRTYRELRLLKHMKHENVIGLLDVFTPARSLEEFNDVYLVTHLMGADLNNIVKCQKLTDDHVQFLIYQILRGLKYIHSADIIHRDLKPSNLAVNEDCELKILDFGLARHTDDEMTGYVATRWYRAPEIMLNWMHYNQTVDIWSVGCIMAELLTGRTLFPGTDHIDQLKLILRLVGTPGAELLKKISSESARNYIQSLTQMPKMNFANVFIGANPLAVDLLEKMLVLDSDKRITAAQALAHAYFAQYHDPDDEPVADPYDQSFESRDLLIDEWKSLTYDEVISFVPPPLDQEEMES
IC50 (TGF-beta receptor type-1) [nM],IC50 [1] [nM],inhibition [2],Compound
94,> 1000,,Cc1cccc(-c2nn(CC(=S)Nc3ccccc3)cc2-c2ccc3ncccc3c2)n1
51,> 1000,,Cc1cccc(-c2nn(CC(=S)Nc3cccc(C#N)c3)cc2-c2ccc3ncccc3c2)n1
232,630,,Cc1cccc(-c2nn(CCC(=S)Nc3cccc(C#N)c3)cc2-c2ccc3ncccc3c2)n1
207,> 1000,,Cc1cccc(-c2nn(CC(=O)Nc3ccccc3)cc2-c2ccc3ncccc3c2)n1
25,> 1000,,Cc1cccc(-c2nn(CCC(=O)Nc3ccccc3)cc2-c2ccc3ncccc3c2)n1
101,> 1000,,Cc1cccc(-c2nn(CCC(=O)Nc3cccc(C#N)c3)cc2-c2ccc3ncccc3c2)n1
> 1000,> 1000,,COc1ccnc2ccc(-c3cnn(CC(=O)Nc4cccc(C#N)c4)c3-c3cccc(C)n3)cc12
> 1000,> 1000,,Cc1cccc(-c2c(-c3ccc4ncccc4c3)cnn2CC(=O)Nc2cccc(C(N)=O)c2)n1
17,480,,Cc1cccc(-c2[nH]c(Cc3cccc(C(N)=O)c3)nc2-c2ccc3nccnc3c2)n1
> 1000,> 1000,,COc1ccnc2ccc(-c3cnn(CC(=O)Nc4ccccc4)c3-c3cccc(C)n3)cc12
> 1000,> 1000,,Cc1cccc(-c2c(-c3ccc4ncccc4c3)cnn2CC(=O)Nc2cccc(C#N)c2)n1
> 1000,> 1000,,COc1ccnc2ccc(-c3cn(CCC(=O)Nc4cccc(C#N)c4)nc3-c3cccc(C)n3)cc12
> 1000,> 1000,,COc1ccnc2ccc(-c3cn(CC(=O)Nc4cccc(C#N)c4)nc3-c3cccc(C)n3)cc12
75,> 1000,,Cc1cccc(-c2nn(CC(=O)Nc3cccc(C(N)=O)c3)cc2-c2ccc3ncccc3c2)n1
> 1000,> 1000,,Cc1cccc(-c2c(-c3ccc4ncccc4c3)cnn2CC(=O)Nc2ccccc2)n1
22,> 1000,Dose-dependent effect,Cc1cccc(-c2nn(CC(=O)Nc3cccc(C#N)c3)cc2-c2ccc3ncccc3c2)n1
88,> 1000,,Cc1cccc(-c2nn(CCC(=S)Nc3ccccc3)cc2-c2ccc3ncccc3c2)n1
> 1000,> 1000,,COc1ccnc2ccc(-c3cn(CC(=O)Nc4ccccc4)nc3-c3cccc(C)n3)cc12
